Assay results as given in US4174406A, “Terpenylaminoalkanol fish toxicants” (priority 1977, dated 1979).
In brackets after ≈: the same amount, converted by molar mass.

Columns and labels:
Brown trout = experiment: Laboratory fish toxicity test (Table 1); format: in vivo, Salmo trutta; settings: tech, 12 C, soft water
Experimental: (§1) Fish were obtained from state and federal hatcheries and maintained prior to testing by a trained fish culturist. Fish of total length 2-5 cm were used in laboratory tests while for outdoor tests small fish (4-6 cm in length) and larger carp and buffalo (Ictiobus cyprinellus) were used.
(§2) In all tests 10 fish of each were exposed to selective concentrations of the toxicant. Mortalities were observed and recorded at 1,2 and 6 hours on the first day and once daily thereafter, during 96 hour exposure.
Laboratory tests were also conducted in soft water 12° C. wherein the toxicant was evaluated against fifteen species of fish including both cold and warm water varieties. In Table 1, the LC 50 toxicity values for N-(2-hydroxyethyl) digeranylamine is shown for various species. LC50 is defined as the amount (mg/liter) of toxicant required to kill 50 percent of the particular fish species at 95% confidence interval.

Aquatic olgochaete = experiment: Static bioassay in invertebrates (Table 2); format: in vivo; settings: Tubifex tubifex, tech, 17 C, limed spring water 22-36 mg/l hardness
Experimental: (§3) The effect of the various toxicants on common invertebrate species was determined in a static test conducted 17° C. The invertebrates tested were collected from natural populations or purchased from commercial suppliers. They were held in soft water in fiberglass tanks in the laboratory or in outdoor plastic swimming pools. Mortality was observed during holding, and only healthy organisms were used for the toxicity tests. At least 10 organisms of nine species were exposed to each concentration in static tests.

Seed shrimp or ostracod = experiment: Static bioassay in invertebrates (Table 2); format: in vivo; settings: tech, 17 C, limed spring water 22-36 mg/l hardness
Experimental: as §3

Snail (Physa sp.) = experiment: Static bioassay in invertebrates (Table 2); format: in vivo; settings: tech, 17 C, limed spring water 22-36 mg/l hardness
Experimental: as §3

Snail (Pleurecera sp.) = experiment: Static bioassay in invertebrates (Table 2); format: in vivo; settings: tech, 17 C, limed spring water 22-36 mg/l hardness
Experimental: as §3

Water flea = experiment: Static bioassay in invertebrates (Table 2); format: in vivo; settings: Daphnia magna, tech, 17 C, limed spring water 22-36 mg/l hardness
Experimental: as §3

Asiade clam = experiment: Static bioassay in invertebrates (Table 2); format: in vivo, Corbicula sp.; settings: tech, 17 C, limed spring water 22-36 mg/l hardness
Experimental: as §3

Fathead minnow = experiment: Outdoor plastic pool test (Table 3); format: in vivo, Pimephales promelas; settings: for % kill: 96 hour, 50% formulation (hydrochloride salt)
Experimental: (§4) N-(2-hydroxyethyl) digeranylamine was tested as a selective fish toxicant in outdoor pools stocked with various fish species and lined with black plastic using 50% water soluble formulations (hydrochloride salt). The formulation was added to each of four pools of 4,000-liter capacity at concentrations of 0.10, 0.15, 0.20, and 0.30 mg/liter. Another pool containing the same number, size, and species of fish served as a control. The test water had algal blooms, a pH of about 8.5, and a total hardness of about 200 mg/liter as CaCo3. The temperature was cool enough (15°-16°C.) to permit the use of trout.
as §1, §2
(§5) Outdoor pool tests were conducted using 50% formulation of the toxicant N-(2-hydroxyethyl) digeranylamine as indicated in Example 8. […] If selective control of white sucker and common carp is desired in an environment which includes rainbow trout, one should employ an effective concentration of toxicant which is at least as great as 0.05 mg/liter but less than 0.1 mg/liter. As a practical fishery practice in the northern United States and Canada, rainbow trout are not usually stocked in bodies of water containing the common carp species; the habitat conditions including water temperature and available oxygen of these species are usually quite different. Common carp and rainbow trout have quite different oxygen and temperature requirements and these differences generally preclude both species cohabitating under natural conditions. In this case the useful range to control common carp and white sucker can be much broader, i.e. 0.1 to 0.3 mg/liter.

Bluegill = experiment: Outdoor plastic pool test (Table 3); format: in vivo, Lepomis macrochirus; settings: for % kill: 96 hour, 50% formulation (hydrochloride salt)
Experimental: as §4, §1, §2, §5

SMILES: CC(C)=CCC/C(C)=C/CN(C/C=C(\C)CCC=C(C)C)CCO [N-(2-hydroxyethyl) digeranylamine]
- LC50 (Brown trout; 3 hours): 0.0955 µg/mL (≈ 0.286 µM)
- LC50 (Brown trout; 6 hours): 0.0742 µg/mL (≈ 0.222 µM)
- LC50 (Brown trout; 24 hours): 0.0700 µg/mL (≈ 0.21 µM)
- LC50 (Brown trout; 96 hours): 0.0647 µg/mL (≈ 0.194 µM)
- LC50 (Aquatic olgochaete; 1 hour): 4.3 µg/mL (≈ 12.9 µM)
- LC50 (Aquatic olgochaete; 3 hour): 2.64 µg/mL (≈ 7.91 µM)
- LC50 (Aquatic olgochaete; 6 hours): 2.35 µg/mL (≈ 7.05 µM)
- LC50 (Aquatic olgochaete; 28 hours): 0.28 µg/mL (≈ 0.839 µM)
- LC50 (Aquatic olgochaete; 96 hours): 0.054 µg/mL (≈ 0.162 µM)
- LC50 (Seed shrimp or ostracod; 6 hours): 3 µg/mL (≈ 8.99 µM)
- LC50 (Seed shrimp or ostracod; 28 hours): 1 µg/mL (≈ 3 µM)
- LC50 (Seed shrimp or ostracod; 96 hours): 0.32 µg/mL (≈ 0.959 µM)
- LC50 (Snail (Physa sp.); 1 hour): 6.30 µg/mL (≈ 18.9 µM)
- LC50 (Snail (Physa sp.); 3 hour): 2.25 µg/mL (≈ 6.75 µM)
- LC50 (Snail (Physa sp.); 6 hours): 0.945 µg/mL (≈ 2.83 µM)
- LC50 (Snail (Physa sp.); 28 hours): 0.580 µg/mL (≈ 1.74 µM)
- LC50 (Snail (Physa sp.); 96 hours): 0.460 µg/mL (≈ 1.38 µM)
- LC50 (Snail (Pleurecera sp.); 28 hours): 10.3 µg/mL (≈ 30.9 µM)
- LC50 (Snail (Pleurecera sp.); 96 hours): 2.68 µg/mL (≈ 8.03 µM)
- LC50 (Water flea; 1 hour): 8 µg/mL (≈ 24 µM)
- LC50 (Water flea; 3 hour): 3.95 µg/mL (≈ 11.8 µM)
- LC50 (Water flea; 6 hours): 3 µg/mL (≈ 8.99 µM)
- LC50 (Water flea; 28 hours): 0.8 µg/mL (≈ 2.4 µM)
- LC50 (Water flea; 96 hours): 0.16 µg/mL (≈ 0.48 µM)
- LC50 (Asiade clam; 28 hours): 56.0 µg/mL (≈ 168 µM)
- LC50 (Asiade clam; 96 hours): 9.60 µg/mL (≈ 28.8 µM)
- % kill (Fathead minnow; 0.10 mg/l): 0%
- % kill (Fathead minnow; 0.15 mg/l): 10%
- % kill (Fathead minnow; 0.20 mg/l): 10%
- % kill (Fathead minnow; 0.30 mg/l): 80%
- survival (in words) (Fathead minnow; fathead minnows, 0.30 mg/liter and lower, 50% formulation): died at 0.30 mg/liter of toxicant, but all survived lower concentrations
- % kill (Bluegill; 0.10 mg/l): 0%
- % kill (Bluegill; 0.15 mg/l): 0%
- % kill (Bluegill; 0.20 mg/l): 0%
- % kill (Bluegill; 0.30 mg/l): 0%
- survival (in words) (Bluegill; bluegill, 0.3 mg/liter, 50% formulation): complete survival
